Reference: patent publication US20200131669A1, “CYCLIC PEPTIDE COMPOUND HAVING HIGH MEMBRANE PERMEABILITY, AND LIBRARY CONTAINING SAME” (Chugai Seiyaku Kabushiki Kaisha, priority 2017, published 2020)
Starred links: 1 amine or outer side, 2 acyl side, 3 side chain; linkers in the order of their positions; H or OH if unused. Positions of bridges follow the written chain, without caps; N, C: chain ends. Non-standard residues stand in square brackets, D forms with d. Residues, ends and D or L forms follow the SMILES beside them. *: point of attachment. NMeAbu(3,3-F2-piperidino) = CN[C@@H](CCN1CCCC(F)(F)C1)C(=O)O; X6 = CN([C@@H](CCN1CCC(F)(F)CC1)C(=O)[*:2])[*:1]; X12 = CCCC[C@@H](O)[C@H](N[*:1])C(=O)[*:2]; hPhe(4-Cl) = N[C@@H](CCc1ccc(Cl)cc1)C(=O)O; X9 = O=C(CN(CCOc1ccccc1)[*:1])[*:2]; Hyp = O=C(O)[C@@H]1C[C@@H](O)CN1; NMeF = CN[C@@H](Cc1ccccc1)C(=O)O; NMeGABA = CN(CCCC(=O)[*:2])[*:1]; hPhe = N[C@@H](CCc1ccccc1)C(=O)O; CH2CONHtBu = CC(C)(C)NC(=O)C*; NMeL = CN[C@@H](CC(C)C)C(=O)O; dNMeL = CN[C@H](CC(C)C)C(=O)O; Propyl(2R-OH) = C[C@@H](O)C*; NMeNva = CCC[C@H](NC)C(=O)O; NMeV = CN[C@H](C(=O)O)C(C)C; NMeAbu = CC[C@H](NC)C(=O)O; NMeA = CN[C@@H](C)C(=O)O; Piperidide = C1CCN(*)CC1; Me2NCH2CH2 = CN(C)CC*; NBuGly = CCCCNCC(=O)O; NPrGly = CCCNCC(=O)O; Sar = CNCC(=O)O; tBu = CC(C)(C)*; Propyl = CCC*

Assay: Caco-2 membrane permeability, improved method as used in the following Examples (96-well, 20 to 24 h preincubation)
Format: in vitro ADME
Settings: Caco-2, Caco-2
Method in brief: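 Caco-2 monolayers were grown three weeks and preincubated 20–24 h at 37 °C with compound in DMEM+FaSSIF (1% DMSO) apically. The assay then used compound in FaSSIF/HBSS (1% DMSO, pH 6.0) apically and HBSS with 4% BSA (pH 7.4) basally. Basal samples were taken at 180 min for LC/MS, and Papp (cm/sec) was calculated.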

Molecule `CC[C@H](C)[C@@H]1NC(=O)[C@H](Cc2ccccc2)N(C)C(=O)CN(C)C(=O)C[C@@H](C(=O)N2CCCCC2)NC(=O)[C@H](C(C)C)N(C)C(=O)[C@H](CCc2ccc(Cl)cc2)NC(=O)[C@H](CC(C)C)N(C)C(=O)[C@H](CC(C)C)N(C)C(=O)CN(C)C(=O)[C@H]([C@@H](C)O)NC(=O)[C@H](CC(C)C)N(C)C1=O` [pd362] ([Sar][NMeF]I[NMeL]T[Sar][NMeL][NMeL][hPhe(4-Cl)][NMeV]D-Piperidide; lactam N-11) has a Papp A→B of 1 ×10⁻⁶ cm/s.

Same assay, conditions: human, Caco-2, Caco-2

First: CCCCN1CC(=O)N(C)[C@@H](CC(C)C)C(=O)N[C@@H](COCCN(C)C)C(=O)N(C)[C@@H](Cc2ccccc2)C(=O)N(C)[C@@H](C(C)C)C(=O)N[C@H](C(=O)N2CCCCC2)CC(=O)N[C@H](CC(C)C)C(=O)N(C)[C@@H](Cc2ccccc2)C(=O)N[C@@H](CC(C)C)C(=O)N(C)[C@@H](CC(C)C)C(=O)N[C@@H]([C@@H](C)O)C1=O [pd51] ([dL][NMeF]L[NMeL]T[NBuGly][NMeL]S(Me2NCH2CH2)[NMeF][NMeV]D-Piperidide; lactam N-11)
Second: CCCOC[C@@H]1NC(=O)[C@H](CC(C)C)N(C)C(=O)CN(C)C(=O)[C@H]([C@@H](C)O)NC(=O)[C@H](CC(C)C)N(C)C(=O)[C@H](CC(C)C)NC(=O)[C@H](Cc2ccccc2)N(C)C(=O)[C@@H](C(C)C)NC(=O)C[C@@H](C(=O)N2CCCCC2)NC(=O)[C@H](CC(C)C)N(C)C(=O)[C@H](Cc2ccccc2)N(C)C1=O [pd325] ([dV][NMeF]L[NMeL]T[Sar][NMeL]S(Propyl)[NMeF][NMeL]D-Piperidide; lactam N-11)
The Papp A→B at 180 min of the first is 31-fold lower: 0.07 ×10⁻⁶ cm/s for the first, 2.2 ×10⁻⁶ cm/s for the second.

`CC[C@H]1C(=O)N[C@@H]([C@@H](C)O)C(=O)N(C)CC(=O)N(C)[C@@H](Cc2ccccc2)C(=O)N(C)[C@@H](CC)C(=O)N[C@@H](COC(C)(C)C)C(=O)N(C)[C@@H](CC(C)C)C(=O)N[C@H](C(=O)N2CCCCC2)CC(=O)N(CCOc2ccccc2)CC(=O)N(C)[C@@H](CC(C)C)C(=O)N[C@@H](CC(C)C)C(=O)N1C` [pd421] ([X9][NMeL]L[NMeAbu]T[Sar][NMeF][NMeAbu]S(tBu)[NMeL]D-Piperidide; lactam N-11) and `CC(C)C[C@H]1C(=O)N[C@@H](COC(C)(C)C)C(=O)N(C)[C@@H](Cc2ccccc2)C(=O)N(C)[C@@H](CC(C)C)C(=O)N[C@H](C(=O)N2CCCCC2)CC(=O)N[C@H](C(C)C)C(=O)N(C)[C@@H](CC(C)C)C(=O)N[C@@H](CCc2ccccc2)C(=O)N(C)[C@@H](CC(C)C)C(=O)N[C@@H]([C@@H](C)O)C(=O)N(C)CC(=O)N1C` [pd315] ([dV][NMeL][hPhe][NMeL]T[Sar][NMeL]S(tBu)[NMeF][NMeL]D-Piperidide; lactam N-11) are within 1.5-fold of each other in Papp A→B at 180 min: 1.3 ×10⁻⁶ cm/s for the first, 1.7 ×10⁻⁶ cm/s for the second.

`CCCC[C@@H](O)[C@@H]1NC(=O)[C@H](CC(C)C)N(C)C(=O)[C@H](Cc2ccccc2)N(C)C(=O)[C@H](C)NC(=O)[C@H](Cc2ccccc2)N(C)C(=O)[C@H](CC(C)C)N(C)C(=O)[C@H](C(C)C)NC(=O)[C@H](C)N(C)C(=O)C[C@@H](C(=O)N2CCCCC2)NC(=O)[C@H](CC(C)C)N(C)C(=O)CN(C)C1=O` [pd469] ([NMeA]V[NMeL][NMeF]A[NMeF][NMeL][X12][Sar][NMeL]D-Piperidide; lactam N-11) and `CC(C)C[C@@H]1NC(=O)[C@H](C)N(C)C(=O)C[C@@H](C(=O)N2CCCCC2)NC(=O)[C@H](C(C)C)N(C)C(=O)CN(C)C(=O)[C@H]([C@@H](C)O)NC(=O)[C@H](CCN2CCCC(F)(F)C2)N(C)C(=O)[C@H](Cc2ccccc2)N(C)C(=O)[C@H](CC(C)C)NC(=O)[C@H](Cc2ccccc2)N(C)C(=O)[C@H](CC(C)C)N(C)C1=O` [pd391] ([NMeA]L[NMeL][NMeF]L[NMeF][NMeAbu(3,3-F2-piperidino)]T[Sar][NMeV]D-Piperidide; lactam N-11) are within 1.5-fold of each other in Papp A→B at 180 min: 2.5 ×10⁻⁶ cm/s for the first, 2.4 ×10⁻⁶ cm/s for the second.

Compared with `CCCCN1CC(=O)N(C)[C@@H](CC(C)C)C(=O)N[C@@H](CC(C)C)C(=O)N(C)[C@@H](Cc2ccccc2)C(=O)N(C)[C@@H](C)C(=O)N[C@H](C(=O)N2CCCCC2)CC(=O)N[C@H](C(C)C)C(=O)N(C)[C@@H](Cc2ccccc2)C(=O)N[C@@H](CC(C)C)C(=O)N(C)[C@@H](CCN2CCC(F)(F)CC2)C(=O)N[C@@H]([C@@H](C)O)C1=O` [pd394] ([dV][NMeF]L[X6]T[NBuGly][NMeL]L[NMeF][NMeA]D-Piperidide; lactam N-11), `CCCCN1CC(=O)N(C)[C@@H](Cc2ccccc2)C(=O)N[C@@H]([C@@H](C)CC)C(=O)N(C)[C@@H](CC(C)C)C(=O)N[C@@H]([C@@H](C)O)C(=O)N(CCC)CC(=O)N(C)[C@@H](Cc2ccccc2)C(=O)N(C)[C@@H](CC(C)C)C(=O)N[C@@H](COCC(=O)NC(C)(C)C)C(=O)N(C)[C@@H](C)C(=O)N[C@H](C(=O)N2CCCCC2)CC1=O` [pd443] ([NBuGly][NMeF]I[NMeL]T[NPrGly][NMeF][NMeL]S(CH2CONHtBu)[NMeA]D-Piperidide; lactam N-11) is 1.8-fold lower in Papp A→B at 180 min: 1.8 ×10⁻⁶ cm/s for the first, 1 ×10⁻⁶ cm/s for the second.

`CCO[C@@H]1C[C@H]2C(=O)N(C)[C@@H](CC(C)C)C(=O)N[C@@H]([C@@H](C)O)C(=O)N(C)[C@@H](Cc3ccccc3)C(=O)N[C@@H](Cc3ccccc3)C(=O)N(C)[C@@H](CC(C)C)C(=O)N[C@H](C(=O)N3CCCCC3)CC(=O)N[C@H](CC(C)C)C(=O)N3CCC[C@H]3C(=O)N[C@@H](COC(C)(C)C)C(=O)N(C)[C@@H](CC(C)C)C(=O)N2C1` [pd372] ([dL]PS(tBu)[NMeL][Hyp](Et)[NMeL]T[NMeF]F[NMeL]D-Piperidide; lactam N-11) and `CC(C)C[C@@H]1NC(=O)[C@H](Cc2ccccc2)N(C)C(=O)[C@@H](CC(C)C)NC(=O)C[C@@H](C(=O)N2CCCCC2)NC(=O)[C@H](CC(C)C)N(C)C(=O)[C@H](Cc2ccccc2)N(C)C(=O)[C@H](COC(C)(C)C)NC(=O)[C@H](CC(C)C)N(C)C(=O)CN(C)C(=O)[C@H](CCC(=O)N(C)C)NC(=O)[C@H](CC(C)C)N(C)C1=O` [pd441] ([dL][NMeF]L[NMeL]E(NMe2)[Sar][NMeL]S(tBu)[NMeF][NMeL]D-Piperidide; lactam N-11) are within 1.5-fold of each other in Papp A→B at 180 min: 1.4 ×10⁻⁶ cm/s for the first, 1.7 ×10⁻⁶ cm/s for the second.

`CCC[C@H]1C(=O)N[C@@H](CC(C)C)C(=O)N(C)[C@@H](CC(C)C)C(=O)N[C@@H]([C@@H](C)O)C(=O)N2C[C@H](OCC)C[C@H]2C(=O)N(C)[C@@H](CC(C)C)C(=O)N[C@@H]([C@@H](C)CC)C(=O)N(C)[C@@H](CC(C)C)C(=O)N2CCC[C@H]2C(=O)N[C@H](C(=O)N2CCCCC2)CC(=O)N(C)[C@H](CC(C)C)C(=O)N1C` [pd381] ([dNMeL][NMeNva]L[NMeL]T[Hyp](Et)[NMeL]I[NMeL]PD-Piperidide; lactam N-11) showed a Papp A→B at 180 min of 5.6 ×10⁻⁶ cm/s.

Same assay, conditions: human, Caco-2, Caco-2 (cm/sec)

`CC(C)C[C@@H]1NC(=O)[C@H](Cc2ccccc2)N(C)C(=O)[C@H]2CCCN2C(=O)C[C@@H](C(=O)N2CCCCC2)NC(=O)[C@H](Cc2ccccc2)N(C)C(=O)[C@H](Cc2ccccc2)N(C)C(=O)[C@H](COC(C)(C)C)NC(=O)[C@H](CC(C)C)N(C)C(=O)CN(C)C(=O)[C@H]([C@@H](C)O)NC(=O)[C@H](CC(C)C)N(C)C1=O` [pd206] ([dP][NMeF]L[NMeL]T[Sar][NMeL]S(tBu)[NMeF][NMeF]D-Piperidide; lactam N-11) and `CC(C)C[C@@H]1NC(=O)[C@H](C)N(C)C(=O)C[C@@H](C(=O)N2CCCCC2)NC(=O)[C@H](CC(C)C)N(C)C(=O)CN(C)C(=O)[C@H]([C@@H](C)O)NC(=O)[C@H](Cc2ccccc2)N(C)C(=O)[C@H](Cc2ccccc2)N(C)C(=O)[C@H](CC(C)C)NC(=O)[C@H](Cc2ccccc2)N(C)C(=O)[C@H](CC(C)C)N(C)C1=O` [pd204] ([NMeA]L[NMeL][NMeF]L[NMeF][NMeF]T[Sar][NMeL]D-Piperidide; lactam N-11) are within 1.5-fold of each other in Papp A→B at 180 min: 1.8 ×10⁻⁶ cm/s for the first, 2 ×10⁻⁶ cm/s for the second.

Going from `CC[C@H](C)[C@@H]1NC(=O)[C@H](C(C)C)N(C)C(=O)CCCN(C)C(=O)C[C@@H](C(=O)N2CCCCC2)NC(=O)[C@H](CC(C)C)N(C)C(=O)[C@H](C)N(C)C(=O)[C@H](Cc2ccc(O)cc2)NC(=O)[C@H](CC(C)C)N(C)C(=O)[C@H](COC(C)(C)C)NC(=O)[C@H](Cc2ccccc2)N(C)C(=O)[C@H](CC(C)C)N(C)C1=O` [pd125] ([NMeGABA][NMeV]I[NMeL][NMeF]S(tBu)[NMeL]Y[NMeA][NMeL]D-Piperidide; lactam N-11) to `CC[C@H](C)[C@@H]1NC(=O)[C@H](CC(C)C)N(C)C(=O)[C@@H](C)NC(=O)C[C@@H](C(=O)N2CCCCC2)NC(=O)[C@H](C(C)C)N(C)C(=O)[C@H](CC(C)C)N(C)C(=O)[C@H](COC(C)(C)C)NC(=O)[C@H](CC(C)C)N(C)C(=O)CN(C)C(=O)[C@H](Cc2c[nH]c3ccccc23)NC(=O)[C@H](CC(C)C)N(C)C1=O` [pd108] ([dA][NMeL]I[NMeL]W[Sar][NMeL]S(tBu)[NMeL][NMeV]D-Piperidide; lactam N-11), the Papp A→B at 180 min rises from 0.45 ×10⁻⁶ cm/s to 0.87 ×10⁻⁶ cm/s (1.9-fold).

Molecule `CC(C)C[C@@H]1NC(=O)[C@H](CC(C)C)N(C)C(=O)[C@@H](C)NC(=O)C[C@@H](C(=O)N2CCCCC2)NC(=O)[C@H](Cc2ccccc2)N(C)C(=O)[C@H](Cc2ccccc2)N(C)C(=O)[C@H](C)N(C)C(=O)[C@H]([C@@H](C)O)NC(=O)[C@H](Cc2ccccc2)N(C)C(=O)[C@H](COC(C)(C)C)NC(=O)[C@H](Cc2ccccc2)N(C)C1=O` [pd234] ([dA][NMeL]L[NMeF]S(tBu)[NMeF]T[NMeA][NMeF][NMeF]D-Piperidide; lactam N-11) has a Papp A→B at 180 min of 0.15 ×10⁻⁶ cm/s.

Same assay, conditions: human; Papp, Caco-2 membrane permeability, improved method; read-out: Caco-2

In the case of `CC(C)C[C@H]1C(=O)N[C@@H](COC(C)(C)C)C(=O)N(C)[C@@H](Cc2ccccc2)C(=O)N(C)[C@@H](CC(C)C)C(=O)N[C@H](C(=O)N2CCCCC2)CC(=O)N[C@@H](C(C)C)C(=O)N(C)[C@@H](Cc2ccccc2)C(=O)N[C@@H](COC[C@@H](C)O)C(=O)N(C)[C@@H](CC(C)C)C(=O)N[C@@H](C(C)C)C(=O)N(C)CC(=O)N1C` [pd492] (V[NMeF]S(Propyl(2R-OH))[NMeL]V[Sar][NMeL]S(tBu)[NMeF][NMeL]D-Piperidide; lactam N-11), the Papp A→B at 180 min is reported as 2.5 ×10⁻⁶ cm/s.
